Measurements as given in US20230126310A1 (priority 2020, published 2023).
Where a name gives a salt, the structure may show the parent alone. Read-outs that look alike come from different tables or passages of the source. Numbered stars: 1 amine (or outer) side, 2 acyl side, 3 side chain; on linkers, the order of the positions; unused ones are H or OH. Bridge positions count the residues as written; N and C are the ends. Square brackets hold non-standard residues; d marks the D form. Peptide text beside a SMILES is read from it. I, II: the chains in the order shown. Actinocin(9to1) = Cc1c2oc3c(C)ccc(C(=O)[*:1])c3nc-2c(C(=O)[*:2])c(N)c1=O; NMeV = CN[C@H](C(=O)O)C(C)C; Sar = CNCC(=O)O

Tested on: SARS-CoV-2
Assay: microbe, parasite or virus in culture
Details: Severe acute respiratory syndrome coronavirus 2, Caco-2, 48 h; for inhibition at 10 µM: read-out: % Inh. (% Inhibition of SARS-CoV-2)

Compound | inhibition at 10 µM [%] | IC50 [µM] | IC50 (read-out: pIC50 (converted)) [µM]
c1ccc(OCc2ccc(CCCN3CCOCC3)cc2)cc1 [Fomocain] | 61.1 |  | 
CCCCC(CC)CNC(=N)NC(=N)NCCCCCCNC(=N)NC(=N)NCC(CC)CCCC (centres unmarked) [Alexidine dihydrochloride] | 76.3 |  | 
O=C(CC(c1ccccc1)c1ccccc1)N1CCN(C(c2ccccc2)c2ccccc2)CC1 [NP118809] | 60.8 |  | 
O=C(O)CCCO [SODIUM OXYBATE] | 57.3 |  | 
CCNC(=O)Nc1ccc(-c2nc3c(c(N4CCOC[C@@H]4C)n2)CCN(C2COC2)C3)cc1 [GDC-0349] | 83.8 |  | 
CCNC1=Nc2ccc(Cl)cc2C(C)(c2ccccc2)O1 (centres unmarked) [Etifoxine (hydrochloride)] |  | 9.29 | 9.33
CCC[C@H](Nc1nc(-c2ccc(NC(=O)NCC)c(OC)c2)ncc1C)c1cccnc1 [CYT997] | 58.6 |  | 
CCOC(=O)C1=C(C)NC(C)=C(C(=O)OC)C1c1cccc(Cl)c1Cl (centres unmarked) [FELODIPINE] | 51.2 |  | 
CC(=O)Oc1c(C)cc(OCC(O)CNC(C)C)c(C)c1C (centres unmarked) [metipranolol] | 54.6 |  | 
COc1cc(C(=O)NC2CCN(C)CC2)c(F)cc1Nc1ncc2c(n1)N(C1CCCC1)CC(F)(F)C(=O)N2C [TAK-960] | 91.6 |  | 
Cc1cc(Nc2ncc(Cl)c(Nc3ccccc3S(=O)(=O)C(C)C)n2)c(OC(C)C)cc1C1CCNCC1 [Ceritinib] | 60 |  | 
COc1cccc2cc(-c3nc([C@H]4CC[C@H](C(=O)O)CC4)n4ncnc(N)c34)[nH]c12 [OSI-027] | 105 |  | 
N#CN1CCCC1 [pyrrolidine-1-carbonitrile] | 65.9 |  | 
O=C1NCCN1CCN1CCC(c2cn(-c3ccc(F)cc3)c3ccc(Cl)cc23)CC1 [sertindole] | 90.3 |  | 
COc1ccc(CCCOC(Cn2ccnc2)c2ccc(OC)cc2)cc1 (centres unmarked) [SKF-96365] | 70.3 |  | 
COC[C@H](NC(=O)c1cnc(C)s1)C(=O)N[C@@H](COC)C(=O)N[C@@H](Cc1ccccc1)C(=O)[C@@]1(C)CO1 [Oprozomib (ONX 0912), Oprozomib] | 52.7 |  | 
O[C@@H](COc1cccc2ncccc12)CN1CCN([C@@H]2c3ccccc3[C@@H]3[C@H](c4ccccc42)C3(F)F)CC1 [LY335979 (Zosuquidar trihydrochloride), Zosuquidar trihydrochloride] | 93 | 26.8 | 26.9
CC1(C)CC(=O)c2c(C(F)(F)F)nn(-c3ccc(C(N)=O)c(N[C@H]4CC[C@H](O)CC4)c3)c2C1 [SNX-2112] | 96.6 |  | 
Cc1c2oc3c(C)ccc(C(=O)N[C@@H]4C(=O)N[C@H](C(C)C)C(=O)N5CCC[C@H]5C(=O)N(C)CC(=O)N(C)[C@@H](C(C)C)C(=O)O[C@@H]4C)c3nc-2c(C(=O)N[C@@H]2C(=O)N[C@H](C(C)C)C(=O)N3CCC[C@H]3C(=O)N(C)CC(=O)N(C)[C@@H](C(C)C)C(=O)O[C@@H]2C)c(N)c1=O [DACTINOMYCIN] (I: T[dV]P[Sar][NMeV] / II: T[dV]P[Sar][NMeV]; ester I:1-I:C, II:1-II:C; linker I:N-II:N via Actinocin(9to1)) | 74.6 |  | 
[H]/N=C(\N/C(=N/[H])NCCCCCCNC(=N)NC(=N)Nc1ccc(Cl)cc1)Nc1ccc(Cl)cc1 [CHLORHEXIDINE DIHYDROCHLORIDE] | 86.4 |  | 
COc1ccc(NC(=O)c2ccc(-c3ccc(-c4noc(C)n4)cc3C)cc2)cc1N1CCN(C)CC1 [GR-127935] | 53.7 |  | 
O=C(O)CCCCC(=O)O [adipic-acid] | 55.9 |  | 
O=C(O)c1ccc(OCCn2ccnc2)cc1 [Dazoxiben] | 56 |  | 
Clc1ccc(C(Cn2ccnc2)OCc2c(Cl)cccc2Cl)c(Cl)c1 (centres unmarked) [Isoconazole nitrate (Travogen), Isoconazole nitrate] | 75.9 |  | 
Cn1c(=O)n(-c2ccc(C(C)(C)C#N)cc2)c2c3cc(-c4cnc5ccccc5c4)ccc3ncc21 [Dactolisib (BEZ235, NVP-BEZ235), Dactolisib] | 91.8 |  | 

Compound | inhibition at 10 µM [%] | IC50 [µM] | IC50 (read-out: pIC50 (converted)) [µM]
CC(=O)CC(c1ccc([N+](=O)[O-])cc1)c1c(O)c2ccccc2oc1=O (centres unmarked) [Acenocoumarin] | 64.2 |  | 
CC1(C)CC[C@]2(C(=O)O)CC[C@]3(C)[C@H](C(=O)C=C4[C@@]5(C)C=C(C#N)C(=O)C(C)(C)[C@@H]5CC[C@]43C)[C@@H]2C1 [Bardoxolone] | 66 |  | 
C[C@]12CC[C@H](O)CC1=CC[C@@H]1[C@@H]2CC[C@]2(C)C(n3cnc4ccccc43)=CC[C@@H]12 [Galeterone (TOK-001), Galeterone] | 69 |  | 
CN1CCC(Nc2ncc3ncnc(Nc4ccc(F)c(Cl)c4)c3n2)CC1 [BIBX-1382] | 79.3 |  | 
Cc1c(CN2CCN(C(=O)[C@H](C)O)CC2)sc2c(N3CCOCC3)nc(-c3cnc(N)nc3)nc12 [Apitolisib (GDC-0980, RG7422), Apitolisib] | 102 |  | 
O=C(OCC(COC(=O)c1cccnc1)(COC(=O)c1cccnc1)COC(=O)c1cccnc1)c1cccnc1 [niceritrol] | 50.1 |  | 
CCc1cnn2c(NCc3ccc[n+]([O-])c3)cc(N3CCCC[C@H]3CCO)nc12 [Dinaciclib (SCH727965), Dinaciclib] | 79.4 |  | 
N#Cc1cn([C@@H]2O[C@H](CO)[C@@H](O)[C@H]2O)c2ncnc(N)c12 [toyocamycin] | 68.4 |  | 
N#CC(=C(/N)Sc1ccccc1N)/C(C#N)=C(\N)Sc1ccccc1N [U-0126] | 79.1 |  | 
COCC(=O)O[C@]1(CCN(C)CCCc2nc3ccccc3[nH]2)CCc2cc(F)ccc2[C@@H]1C(C)C [mibefradil] | 52.4 |  | 
C#Cc1cccc(Nc2ncnc3cc4c(cc23)OCCOCCOCCO4)c1 [Icotinib] | 68.1 |  | 
Cc1[nH]cnc1-c1ccc(Cl)cc1 [lofemizole] | 56.3 |  | 
N#CC(c1ccnc(OCc2ccc(CN3CCOCC3)cc2)n1)c1nc2ccccc2s1 (centres unmarked) [Bentamapimod] | 78.4 | 5.12 | 5.13
Cc1cc2c(C(C)C)c(O)c(O)c(C=O)c2c(O)c1-c1c(C)cc2c(C(C)C)c(O)c(O)c(C=O)c2c1O [gossypol] | 66.3 |  | 
O=C(Nc1ccc(Cl)cc1)Nc1ccc(Cl)c(Cl)c1 [Triclocarban] | 97.2 |  | 
O=c1[nH]c2ccccc2n1C1CCN(CCOc2ccccc2)CC1 [oxiperomide] | 77.9 |  | 
COc1ccc(/C=C/C(=O)O)cc1 [trans-4-Methoxycinnamic-acid] | 53.6 |  | 
Cn1c(NC[C@@H](N)Cc2ccccc2)nc(-c2ccncc2)c(-c2ccc3ccccc3c2)c1=O [AMG-548] | 89 |  | 
C[C@]1(O)C[C@@H](c2nc(-c3ccc4ccc(-c5ccccc5)nc4c3)c3c(N)nccn32)C1 [OSI-906 (Linsitinib), Linsitinib] | 110 | 24.9 | 25.1
CCN1C(=O)CNc2ncc(-c3ccc(-c4nc[nH]n4)nc3C)nc21 [CC-115] | 96.6 |  | 
COc1cc2nccc(Oc3ccc(NC(=O)C4(C(=O)Nc5ccc(F)cc5)CC4)cc3)c2cc1OC [cabozantinib] | 57.5 |  | 
C=C[C@H]1CN2CC[C@H]1C[C@H]2[C@H](OC(=O)OCC)c1ccnc2ccc(OC)cc12 [QUININE ETHYL CARBONATE] | 59.1 |  | 
CC1(C)S[C@@H]2[C@H](N3C(=O)[C@@H](c4ccccc4)NC3(C)C)C(=O)N2[C@H]1C(=O)O [HETACILLIN POTASSIUM] | 67.1 |  | 
CC(=O)NC(Cc1ccccc1)C(=O)O (centres unmarked) [AFALANINE] | 62.1 |  | 
